In ChEMBL document CHEMBL6096632, “Synthesis and evaluation of N-arylindazole-3-carboxamide derivatives as novel antiviral agents against SARS-CoV-2” (Bioorg Med Chem Lett, 2024):

How the values were obtained:
[1] = Selectivity index, ratio of CC50 for African green monkey Vero cells to EC50 for antiviral activity against SARS-CoV-2 expressing nucleocapsid protein infected in African green monkey Vero cells; assay type: toxicity, cell-based; settings: read-out: Ratio CC50/EC50
[2] = Cytotoxicity against African green monkey Vero cells incubated for 24 hrs by WST reagent based EZ-cytox assay; assay type: toxicity, cell-based; settings: chlorocebus sabaeus
SARS-CoV-2 = assay: Antiviral activity against SARS-CoV-2 expressing nucleocapsid protein infected in African green monkey Vero cells assessed as inhibition of viral growth by Hoechst 33342 staining based immunofluorescence analysis; assay type: functional, organism-based; settings: Severe acute respiratory syndrome coronavirus 2, Vero
[3] = Metabolic stability in human liver microsomes assessed as parent compound remaining preincubated for 10 mins followed by NADPH addition and measured after 30 mins by HPLC-MS/MS analysis; assay type: ADME, Microsome; settings: time 40 min, read-out: Stability
CYP1A2 = molecular target: T1, CYP1A2 (Homo sapiens, UniProt P05177); assay: Inhibition of CYP1A2 in human liver microsomes using phenacetin as substrate at 10 uM preincubated for 5 mins followed by substrate and NADPH addition and measured after 20 mins by HPLC-MS/MS analysis; assay type: ADME, Microsome; settings: probe phenacetin, time 25 min
T1 sequence (P05177 whole entry): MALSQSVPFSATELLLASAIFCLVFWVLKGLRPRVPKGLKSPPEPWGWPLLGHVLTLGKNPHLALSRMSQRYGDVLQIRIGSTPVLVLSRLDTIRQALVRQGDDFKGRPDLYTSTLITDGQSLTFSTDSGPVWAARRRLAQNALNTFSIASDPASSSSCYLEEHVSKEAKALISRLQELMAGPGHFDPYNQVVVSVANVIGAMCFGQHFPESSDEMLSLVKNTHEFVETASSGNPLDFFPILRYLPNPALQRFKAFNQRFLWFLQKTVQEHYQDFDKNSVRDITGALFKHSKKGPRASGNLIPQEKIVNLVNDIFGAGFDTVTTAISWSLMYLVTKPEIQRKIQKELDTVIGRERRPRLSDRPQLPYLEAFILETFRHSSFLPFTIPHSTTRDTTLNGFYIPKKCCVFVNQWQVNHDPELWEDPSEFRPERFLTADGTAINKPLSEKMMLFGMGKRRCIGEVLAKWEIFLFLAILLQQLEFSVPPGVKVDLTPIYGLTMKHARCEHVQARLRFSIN

CYP3A4 = CYP3A4 (Homo sapiens, UniProt P08684); assay: Inhibition of CYP3A4 in human liver microsomes using […] as substrate at 10 uM preincubated for 5 mins followed by substrate and NADPH addition and measured after 20 mins by HPLC-MS/MS analysis; assay type: ADME, Microsome; settings: probe sorafenib, time 25 min
Sequence of CYP3A4 (P08684 whole entry): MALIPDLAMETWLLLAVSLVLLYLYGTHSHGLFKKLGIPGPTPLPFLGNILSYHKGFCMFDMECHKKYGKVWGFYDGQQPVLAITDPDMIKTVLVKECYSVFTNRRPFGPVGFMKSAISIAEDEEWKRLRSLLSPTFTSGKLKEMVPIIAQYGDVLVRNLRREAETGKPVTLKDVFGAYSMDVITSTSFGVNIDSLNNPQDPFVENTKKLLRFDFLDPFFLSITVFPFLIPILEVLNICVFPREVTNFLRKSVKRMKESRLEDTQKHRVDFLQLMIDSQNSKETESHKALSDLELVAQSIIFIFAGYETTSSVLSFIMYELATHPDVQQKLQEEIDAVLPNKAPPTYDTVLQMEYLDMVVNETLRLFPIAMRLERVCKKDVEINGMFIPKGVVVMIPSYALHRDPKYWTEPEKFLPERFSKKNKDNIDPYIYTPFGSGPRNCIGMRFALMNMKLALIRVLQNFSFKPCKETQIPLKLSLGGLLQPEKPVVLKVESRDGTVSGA

[4] = Cytotoxicity against mouse NIH3T3 cells incubated for 24 hrs by WST reagent based EZ-cytox assay; assay type: toxicity, cell-based
[5] = Cytotoxicity against HFL1 cells incubated for 24 hrs by WST reagent based EZ-cytox assay; assay type: toxicity, cell-based; settings: human
[6] = Cytotoxicity against mouse L929 cells incubated for 24 hrs by WST reagent based EZ-cytox assay; assay type: toxicity, cell-based
CYP2D6 = CYP2D6 (Homo sapiens, UniProt P10635); assay: Inhibition of CYP2D6 in human liver microsomes using dextromethorphan as substrate at 10 uM preincubated for 5 mins followed by substrate and NADPH addition and measured after 20 mins by HPLC-MS/MS analysis; assay type: ADME, Microsome; settings: probe dextromethorphan, time 25 min
Sequence of CYP2D6 (P10635 whole entry): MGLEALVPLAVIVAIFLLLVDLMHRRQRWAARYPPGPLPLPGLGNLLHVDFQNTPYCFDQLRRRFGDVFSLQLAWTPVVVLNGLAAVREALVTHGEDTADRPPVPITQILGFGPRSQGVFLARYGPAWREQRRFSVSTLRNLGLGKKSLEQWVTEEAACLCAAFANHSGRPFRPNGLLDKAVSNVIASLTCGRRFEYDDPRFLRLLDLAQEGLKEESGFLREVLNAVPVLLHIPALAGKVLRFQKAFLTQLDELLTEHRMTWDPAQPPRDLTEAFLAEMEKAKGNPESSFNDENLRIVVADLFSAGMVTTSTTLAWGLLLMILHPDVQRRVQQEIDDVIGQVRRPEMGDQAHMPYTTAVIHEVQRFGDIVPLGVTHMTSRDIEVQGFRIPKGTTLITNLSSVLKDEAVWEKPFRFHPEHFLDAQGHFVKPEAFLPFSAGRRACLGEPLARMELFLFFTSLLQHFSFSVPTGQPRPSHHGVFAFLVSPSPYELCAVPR

hERG (KCNH2) = hERG (KCNH2) (Homo sapiens, UniProt Q12809); assay: Inhibition of human ERG at 10 uM by fluorescence polarization relative to control; assay type: toxicity
Sequence of hERG (KCNH2) (Q12809 whole entry): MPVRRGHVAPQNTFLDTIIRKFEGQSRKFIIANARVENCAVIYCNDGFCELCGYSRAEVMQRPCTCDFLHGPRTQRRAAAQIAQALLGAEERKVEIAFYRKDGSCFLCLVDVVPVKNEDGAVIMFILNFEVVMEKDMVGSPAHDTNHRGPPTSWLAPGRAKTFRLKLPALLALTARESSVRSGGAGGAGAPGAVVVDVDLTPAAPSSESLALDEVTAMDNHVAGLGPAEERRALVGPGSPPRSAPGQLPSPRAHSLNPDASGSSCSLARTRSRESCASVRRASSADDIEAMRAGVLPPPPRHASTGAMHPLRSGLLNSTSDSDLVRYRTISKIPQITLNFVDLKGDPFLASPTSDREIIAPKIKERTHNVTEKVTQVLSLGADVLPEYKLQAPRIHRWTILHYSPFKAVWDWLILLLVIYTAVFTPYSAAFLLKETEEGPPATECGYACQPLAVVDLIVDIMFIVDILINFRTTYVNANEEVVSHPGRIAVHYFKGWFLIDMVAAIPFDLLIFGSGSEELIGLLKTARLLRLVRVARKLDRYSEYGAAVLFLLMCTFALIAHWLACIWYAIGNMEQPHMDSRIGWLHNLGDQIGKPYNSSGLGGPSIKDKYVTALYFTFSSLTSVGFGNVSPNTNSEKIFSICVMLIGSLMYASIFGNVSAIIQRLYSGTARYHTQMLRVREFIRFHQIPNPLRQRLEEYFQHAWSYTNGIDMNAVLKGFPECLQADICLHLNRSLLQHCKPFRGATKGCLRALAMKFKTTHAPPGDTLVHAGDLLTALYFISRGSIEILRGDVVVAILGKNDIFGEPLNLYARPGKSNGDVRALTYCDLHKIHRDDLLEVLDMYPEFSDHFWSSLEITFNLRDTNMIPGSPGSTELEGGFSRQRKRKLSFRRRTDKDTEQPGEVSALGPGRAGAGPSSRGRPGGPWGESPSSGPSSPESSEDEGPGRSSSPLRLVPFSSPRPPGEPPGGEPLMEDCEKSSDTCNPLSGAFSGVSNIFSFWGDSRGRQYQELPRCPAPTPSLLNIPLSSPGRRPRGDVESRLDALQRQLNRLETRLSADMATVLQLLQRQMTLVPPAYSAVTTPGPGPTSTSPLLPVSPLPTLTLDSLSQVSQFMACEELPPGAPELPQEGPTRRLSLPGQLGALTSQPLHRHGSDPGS

[7] = Metabolic stability in mouse liver microsomes assessed as parent compound remaining preincubated for 10 mins followed by NADPH addition and measured after 30 mins by HPLC-MS/MS analysis; assay type: ADME, Microsome; settings: time 40 min, read-out: Stability
[8] = Cytotoxicity against CHO-K1 cells incubated for 24 hrs by WST reagent based EZ-cytox assay; assay type: toxicity, cell-based, Cricetulus griseus; settings: chinese hamster
CYP2C9 = CYP2C9 (Homo sapiens, UniProt P11712); assay: Inhibition of CYP2C9 in human liver microsomes using tolbutamide as substrate at 10 uM preincubated for 5 mins followed by substrate and NADPH addition and measured after 20 mins by HPLC-MS/MS analysis; assay type: ADME, Microsome; settings: probe tolbutamide, time 25 min
Sequence of CYP2C9 (P11712 whole entry): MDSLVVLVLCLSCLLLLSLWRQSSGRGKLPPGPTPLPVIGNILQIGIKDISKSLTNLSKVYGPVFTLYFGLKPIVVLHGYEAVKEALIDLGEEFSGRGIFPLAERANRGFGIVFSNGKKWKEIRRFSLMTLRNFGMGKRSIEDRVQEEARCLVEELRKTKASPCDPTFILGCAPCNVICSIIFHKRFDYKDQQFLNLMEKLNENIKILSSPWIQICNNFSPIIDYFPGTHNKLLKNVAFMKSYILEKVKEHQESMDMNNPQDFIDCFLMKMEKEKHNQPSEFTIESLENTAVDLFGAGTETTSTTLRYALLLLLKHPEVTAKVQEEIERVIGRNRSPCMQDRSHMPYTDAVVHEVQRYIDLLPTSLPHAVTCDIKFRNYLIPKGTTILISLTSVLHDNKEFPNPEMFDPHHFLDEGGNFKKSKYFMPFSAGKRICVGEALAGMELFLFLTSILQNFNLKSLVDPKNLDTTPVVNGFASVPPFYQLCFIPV

CYP2C19 = CYP2C19 (Homo sapiens, UniProt P33261); assay: Inhibition of CYP2C19 in human liver microsomes using S-mephenytoin as substrate at 10 uM preincubated for 5 mins followed by substrate and NADPH addition and measured after 20 mins by HPLC-MS/MS analysis; assay type: ADME, Microsome; settings: probe S-mephenytoin, time 25 min
Sequence of CYP2C19 (P33261 whole entry): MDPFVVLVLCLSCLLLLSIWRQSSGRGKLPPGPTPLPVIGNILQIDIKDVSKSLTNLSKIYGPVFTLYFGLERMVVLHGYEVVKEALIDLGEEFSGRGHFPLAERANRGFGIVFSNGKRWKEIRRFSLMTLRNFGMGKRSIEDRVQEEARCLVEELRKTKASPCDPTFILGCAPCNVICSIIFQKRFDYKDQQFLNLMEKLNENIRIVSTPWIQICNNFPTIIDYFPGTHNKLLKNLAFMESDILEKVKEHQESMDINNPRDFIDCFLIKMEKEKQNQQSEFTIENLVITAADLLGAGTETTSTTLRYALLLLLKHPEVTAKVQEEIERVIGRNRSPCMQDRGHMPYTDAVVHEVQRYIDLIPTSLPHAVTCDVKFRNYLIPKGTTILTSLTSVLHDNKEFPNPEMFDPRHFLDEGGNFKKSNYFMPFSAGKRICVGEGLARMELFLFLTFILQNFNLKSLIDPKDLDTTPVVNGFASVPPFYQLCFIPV

[9] = system: Middle East respiratory syndrome-related coronavirus; assay: Antiviral activity against MERS-CoV expressing spike protein infected in African green monkey Vero cells assessed as inhibition of viral growth by Hoechst 33342 staining based immunofluorescence analysis; assay type: functional, organism-based

In the case of O=C(Nc1cccc(OC(F)(F)F)c1)c1n[nH]c2ccc(Cl)cc12, the selectivity ratio [1] is reported as > 4.6, the CC50 at 24 h [2] is reported as > 25 µM and the EC50 (SARS-CoV-2) is reported as 5.5 µM.
With O=C(Nc1cccc(C(F)(F)F)c1)c1n[nH]c2ccc(Cl)cc12 the selectivity ratio [1] was > 8.8, the CC50 at 24 h [2] was > 25 µM and the EC50 (SARS-CoV-2) was 2.8 µM.
With N#Cc1ccccc1NC(=O)c1n[nH]c2ccc(Cl)cc12 the selectivity ratio [1] was 1, the CC50 at 24 h [2] was > 25 µM and the EC50 (SARS-CoV-2) was > 25 µM.
For O=C(Nc1cc(Cl)cc(Cl)c1)c1n[nH]c2cc(Cl)ccc12, the selectivity ratio [1] was 1, the CC50 at 24 h [2] was > 25 µM and the EC50 (SARS-CoV-2) was > 25 µM.
In the case of O=C(Nc1cc(Cl)cc(Cl)c1)c1n[nH]c2cc(F)ccc12, the selectivity ratio [1] is reported as > 21.4, the CC50 at 24 h [2] is reported as > 25 µM and the EC50 (SARS-CoV-2) is reported as 1.2 µM.
In the case of O=C(Nc1cc(Cl)cc(Cl)c1)c1n[nH]c2ccc(F)cc12, the selectivity ratio [1] is reported as 1, the CC50 at 24 h [2] is reported as > 25 µM and the EC50 (SARS-CoV-2) is reported as > 25 µM.
With Cc1cccc(NC(=O)c2n[nH]c3ccc(Cl)cc23)c1 the selectivity ratio [1] was 1, the CC50 at 24 h [2] was > 25 µM and the EC50 (SARS-CoV-2) was > 25 µM.
For N#Cc1ccc(NC(=O)c2n[nH]c3ccc(Cl)cc23)cc1, the selectivity ratio [1] was 1, the CC50 at 24 h [2] was > 25 µM and the EC50 (SARS-CoV-2) was > 25 µM.
With O=C(Nc1ccccc1F)c1n[nH]c2ccc(Cl)cc12 the selectivity ratio [1] was 1, the CC50 at 24 h [2] was > 25 µM and the EC50 (SARS-CoV-2) was > 25 µM.
In the case of O=C(Nc1ccccc1Cl)c1n[nH]c2ccc(Cl)cc12, the selectivity ratio [1] is reported as 1, the CC50 at 24 h [2] is reported as > 25 µM and the EC50 (SARS-CoV-2) is reported as > 25 µM.
For CCC(CC)COC(=O)[C@H](C)N[P@](=O)(OC[C@H]1O[C@@](C#N)(c2ccc3c(N)ncnn23)[C@H](O)[C@@H]1O)Oc1ccccc1, the CC50 at 24 h [2] was > 25 µM.
With O=C(Nc1ccc(F)cc1)c1n[nH]c2ccc(Cl)cc12 the selectivity ratio [1] was 1, the CC50 at 24 h [2] was > 25 µM and the EC50 (SARS-CoV-2) was > 25 µM.
For O=C(Nc1cc(Cl)cc(Cl)c1)c1n[nH]c2ccc(Cl)cc12, the remaining at 0.5 h [3] was 97%, the inhibition at 20 min, 10 µM (CYP1A2) was 11% and the selectivity ratio [1] was > 36. For the same compound, the inhibition at 20 min, 10 µM (CYP3A4) was 54%, the CC50 at 24 h [4] was > 100 µM and the CC50 at 24 h [5] was > 100 µM. The CC50 at 24 h [6] was > 100 µM, the inhibition at 20 min, 10 µM (CYP2D6) was 1% and the inhibition at 10 µM (hERG (KCNH2)) was < 1%. The remaining at 0.5 h [7] was 48%, the CC50 at 24 h [2] was > 20 µM and the CC50 at 24 h [8] was > 100 µM. The inhibition at 20 min, 10 µM (CYP2C9) was 14%, the EC50 (SARS-CoV-2) was 0.69 µM and the inhibition at 20 min, 10 µM (CYP2C19) was 8%.
In the case of O=C(Nc1ccc(Cl)cc1)c1n[nH]c2ccc(Cl)cc12, the selectivity ratio [1] is reported as 1, the CC50 at 24 h [2] is reported as > 25 µM and the EC50 (SARS-CoV-2) is reported as > 25 µM.
In the case of Cc1cc(C)cc(NC(=O)c2n[nH]c3ccc(Cl)cc23)c1, the selectivity ratio [1] is reported as > 11.1, the CC50 at 24 h [2] is reported as > 25 µM and the EC50 (SARS-CoV-2) is reported as 2.3 µM.
With O=C(Nc1cccc([N+](=O)[O-])c1)c1n[nH]c2ccc(Cl)cc12 the selectivity ratio [1] was 1, the CC50 at 24 h [2] was > 25 µM and the EC50 (SARS-CoV-2) was > 25 µM.
For O=C(Nc1cc(Cl)cc(Cl)c1)c1n[nH]c2ccccc12, the selectivity ratio [1] was 1, the EC50 [9] was 1.7 µM and the CC50 at 24 h [2] was > 25 µM. For the same compound, the EC50 (SARS-CoV-2) was > 25 µM.
For O=C(Nc1cccc(F)c1)c1n[nH]c2ccc(Cl)cc12, the selectivity ratio [1] was 1, the CC50 at 24 h [2] was > 25 µM and the EC50 (SARS-CoV-2) was > 25 µM.
In the case of N#Cc1cccc(NC(=O)c2n[nH]c3ccc(Cl)cc23)c1, the selectivity ratio [1] is reported as > 13.7, the CC50 at 24 h [2] is reported as > 25 µM and the EC50 (SARS-CoV-2) is reported as 1.8 µM.
With CCCCNC(=O)c1n[nH]c2ccc(Cl)cc12 the selectivity ratio [1] was 1, the CC50 at 24 h [2] was > 25 µM and the EC50 (SARS-CoV-2) was > 25 µM.
In the case of O=C(NC1CCCCC1)c1n[nH]c2ccc(Cl)cc12, the selectivity ratio [1] is reported as 1, the CC50 at 24 h [2] is reported as > 25 µM and the EC50 (SARS-CoV-2) is reported as > 25 µM.
